Reference: patent US20250179061A1 (SIRONAX LTD., priority 2022, published 2025)
pIC50: −log10 of the molar value.

System: HT-29 cells
Test: HT-29 necroptosis cell viability assay (TNF-α/SMAC mimetic/zVAD-FMK, CellTiter-Glo)
Assay type: cell-based
Details: Homo sapiens, HT-29, HT-29 cells, necroptosis induced by TNF-α/SMAC mimetic/zVAD-FMK, CellTiter-Glo; read-out: Activity (IC50 class)
Protocol: Compounds 1-702 of the disclosure were tested for biological activity, following the experimental procedures described below.
• Cell line: HT-29 (ATCC® HTB-38™) • Culture medium: McCOY's 5A, Gibco, Cat No. 16600-082 • FBS, Gibco, Cat No. 10099-141 C • Trypsin: Gibco, Cat No. 25200-056 • DMSO: Sigma, Cat No. 67-68-5, 1L • Assay plate: Corning #3903 • Compound dilution plate: Corning #3357 • Inducers: TNFα, GenScript, Cat No. Z01001-50, • SmacM, Cat. No., HY-15989, MedChemExpress (MCE) • Z_VAD FMK, TargetMol, T6013 • Cell Titer-Glo® Luminescent Cell Viability Assay Kit: Promega, Cat No. G7573 • EnVision: PerkinElmer, 2105-0010
• 1. HT-29 cells were checked every day to make sure that they were healthy and growing as expected. They were subjected to sub-culturing when they were approximately 80% confluent. • 2. The culture medium, McCOY's 5A medium (Gibco, Cat No. 16600-082) with 10% fetal bovine serum or FBS (Gibco, Cat No. 10099-141C), was pre-warmed in a 37° C. water bath for at least 30 min. • 3. When the cells had reached a desired level of confluency of 80% in a T75 flask, the medium was aspirated, and the cells were washed with warm phosphate buffered saline or PBS two times. • 4. 2-3 ml fresh warm trypsin (Gibco, Cat No. 25200-056) solution was added to the washed cells. The flask with the cells was transferred to a 37° C. incubator. • 5. After 5 minutes, the side of the flask was tapped, and the flask was examined under a microscope for detachment of the cells to the flask. If necessary, the cells were kept in the incubator for an additional 5-10 minutes, with occasional tapping, until lifting was complete. • 6. The trypsin reaction was neutralized by transferring 6-9 ml cell culture medium to sterile 15 ml conical tubes, and by centrifuging the cell culture at 300×g for 7 minutes to pellet the cells (supernatant decanted). • 7. The cells were resuspended in fresh cell culture medium and the cell counting was performed using a hemocytometer. • 8. 100 μl of the resuspended cell culture medium containing ˜5,000 cells were transferred into each well of the sterile 96-well cell culture plate (Corning 3903) and cultured overnight at 37° C. with 5% CO2.
• 1. All test compounds were dissolved in DMSO (Dimethyl sulfoxide) to create a 20 mM stock. • 2. 3 μl of 20 mM stock of each compound was mixed with 27 μl DMSO, and the compound solution was further diluted at a titration ratio of 1:3 (20 μl compound solution+40 μl DMSO) till the 10 points end. • 3. All culture medium was removed from assay plates filled with HT-29 cell cultures. The cells were then washed with 1 PBS, and resuspsended in fresh, FBS-free McCOY's 5A medium containing a cocktail of TNF-α (10 ng/ml), a SMAC mimetic compound (6 μM) and Z-VAD-fluoromethylketone or zVAD-FMK (10 μM) to stimulate the HT-29 cells to increase RIP1 kinase levels and necroptosis. • 4. 0.5 μL of the diluted compound solution was added to the corresponding 96-well assay plates. • 5. The assay plates were incubated for 20 hours at 37° C. with 5% CO2.
• 1. The CellTiter-Glo® Luminescent Cell Viability Assay was employed to detect the ATP levels of viable HT-29 cells. • 2. The CellTiter-Glo® buffer and the lyophilized substrate were equilibrated to room temperature prior to use. • 3. The CellTiter-Glo® substrate was resuspended with CellTiter-Glo® buffer, then mixed by gently vortexing to obtain a homogeneous solution. • 4. 20 μl of the enzyme/substrate mixture was transferred by multi-channel pipetting into 96-well assay plates. • 5. The assay plates were placed on an orbital shaker and the contents were shaken for 3 minutes to induce cell lysis. • 6. The assay plates were incubated at room temperature for 10 minutes to stabilize the luminescent signal. • 7. The luminescence signals were read and recorded with EnVision. • 8. The geometric mean IC50 values were calculated from 10 points response dose with duplicates. […]

| SMILES | pIC50 |
| --- | --- |
| Cc1ncsc1OC1CCC(n2nc3n(c2=O)[C@H](c2ccccc2)CC3)CC1 (single isomer, unassigned) [Example 636] | 6.00 to 7.00 |
| Cc1nc(C(N)=O)sc1Oc1ncc(-n2nc3n(c2=O)[C@H](c2ccccc2)CC3)cc1F (single isomer, unassigned) [Example 638] | > 7.00 |
| Cc1nc(C(N)=O)sc1Oc1ncc(-n2nc3n(c2=O)[C@@H](c2ccccc2)CC3)cc1F (single isomer, unassigned) [Example 639] | 6.00 to 7.00 |
| Cc1nc(C(N)=O)sc1Oc1ncc(-n2nc3n(c2=O)[C@H](c2ccccc2)CC3)cc1Cl (single isomer, unassigned) [Example 640] | > 7.00 |
| Cc1nc(C(N)=O)sc1Oc1ncc(-n2nc3n(c2=O)[C@@H](c2ccccc2)CC3)cc1Cl (single isomer, unassigned) [Example 641] | 5.00 to 6.00 |
| Cc1nc(C(N)=O)sc1Oc1ccc(-n2nc3n(c2=O)[C@H](c2ccc(F)cc2)CC3)cc1F (single isomer, unassigned) [Example 668] | > 7.00 |
| Cc1nc(C(N)=O)sc1Oc1ccc(-n2nc3n(c2=O)[C@@H](c2ccc(F)cc2)CC3)cc1F (single isomer, unassigned) [Example 669] | 5.00 to 6.00 |
| NC(=O)c1ncc(Oc2ccc(-n3nc4n(c3=O)[C@H](c3ccccc3)CC4)cc2F)s1 (single isomer, unassigned) [Example 670] | > 7.00 |

Same assay, conditions: Homo sapiens, HT-29, HT-29 necroptosis cell viability assay; class symbols for IC50; read-out: Activity

| SMILES | pIC50 |
| --- | --- |
| Cc1nc(C(C)O)sc1Oc1ccc(-n2nc3n(c2=O)[C@H](c2ccccc2)CC3)cc1F (single isomer, unassigned) [Example 149] | > 7.00 |
| Cc1nc([C@@H](C)O)sc1Oc1ccc(-n2nc3n(c2=O)[C@H](c2ccccc2)CC3)cc1F (single isomer, unassigned) [Example 150] | > 7.00 |
| Cc1nc([C@H](C)O)sc1Oc1ccc(-n2nc3n(c2=O)[C@H](c2ccccc2)CC3)cc1F (single isomer, unassigned) [Example 151] | > 7.00 |
| Cc1nc(C(=O)N2CCOCC2)sc1Oc1ccc(-n2nc3n(c2=O)[C@H](c2ccccc2)CC3)cc1F (single isomer, unassigned) [Example 601] | > 7.00 |
| Cc1nc(C(=O)NC2CCOCC2)sc1Oc1ccc(-n2nc3n(c2=O)[C@H](c2ccccc2)CC3)cc1F (single isomer, unassigned) [Example 602] | > 7.00 |

Same assay, conditions: Homo sapiens, HT-29, HT-29 necroptosis cell viability, IC50 class symbols; read-out: Activity

| SMILES | pIC50 |
| --- | --- |
| Cc1nc(C(C)O)sc1Oc1ccc(-n2ncn(Cc3c(F)cccc3F)c2=O)cc1 (racemic) [Example 459, 4-(2,6-difluorobenzyl)-2-(4-((2-(1-hydroxyethyl)-4-methylthiazol-5-yl)oxy)phenyl)-2,4-dihydro-3H-1,2,4-triazol-3-one] | > 7.00 |
| C[C@H]1[C@@H](O)CN1c1cc(Oc2ccc(-n3nc4n(c3=O)[C@H](c3ccccc3)CC4)cc2F)c(F)cn1 (single isomer, unassigned) [Example 258] | > 7.00 |
| Cc1nc([C@H](C)O)sc1Oc1ccc(-n2ncn(Cc3c(F)cccc3F)c2=O)cc1F (single isomer, unassigned) [Example 460] | > 7.00 |
| Cc1nc([C@@H](C)O)sc1Oc1ccc(-n2ncn(Cc3c(F)cccc3F)c2=O)cc1F (single isomer, unassigned) [Example 461] | > 7.00 |

Same assay, conditions: Homo sapiens; HT-29 cells stimulated with TNF-α (10 ng/ml), SMAC mimetic (6 μM) and zVAD-FMK (10 μM); 20 hours; CellTiter-Glo ATP luminescence; geometric mean IC50 from 10 points; read-out: Activity

| SMILES | pIC50 |
| --- | --- |
| Cc1ncsc1Oc1ccc(-n2nc3n(c2=O)[C@H](c2ccccc2)CC3)cc1F (single isomer, unassigned) [Example 3] | > 7.00 |
| Cc1ncsc1Oc1ccc(-n2nc3n(c2=O)[C@@H](c2ccccc2)CC3)cc1F (single isomer, unassigned) [Example 4] | > 7.00 |
| Cc1nc(C(N)=O)sc1Oc1ccc(-n2nc3n(c2=O)[C@H](c2ccccc2)CC3)cc1F (single isomer, unassigned) [Example 14] | > 7.00 |
| Cc1nc(C(N)=O)sc1Oc1ccc(-n2nc3n(c2=O)[C@@H](c2ccccc2)CC3)cc1F (single isomer, unassigned) [Example 15] | 6.00 to 7.00 |
| Cc1nc(C(N)=O)sc1Oc1ccc(-n2nc3n(c2=O)[C@H](c2ccccc2)CC3)cc1Cl (single isomer, unassigned) [Example 16] | > 7.00 |
| Cc1nc(C(N)=O)sc1Oc1ccc(-n2nc3n(c2=O)[C@H](c2ccccc2)CC3)cc1 (single isomer, unassigned) [Example 17] | > 7.00 |
| Cc1nc(C(=O)NC2CCOC2)sc1Oc1ccc(-n2nc3n(c2=O)[C@H](c2ccccc2)CC3)cc1F (single isomer, unassigned) [Example 18] | > 7.00 |
| Cn1nc(C(N)=O)cc1Oc1ccc(-n2nc3n(c2=O)[C@H](c2ccccc2)CC3)cc1F (single isomer, unassigned) [Example 30] | > 7.00 |
| COC(=O)c1nc(C)c(Oc2ccc(-n3nc4n(c3=O)[C@@H](c3ccccc3)CC4)cc2F)s1 (single isomer, unassigned) [Example 35] | 5.00 to 6.00 |
| COC(=O)c1nc(C)c(Oc2ccc(-n3nc4n(c3=O)[C@H](c3ccccc3)CC4)cc2F)s1 (single isomer, unassigned) [Example 36] | > 7.00 |
| Cn1cc(C(N)=O)nc1Oc1ccc(-n2nc3n(c2=O)[C@H](c2ccccc2)CC3)cc1F (single isomer, unassigned) [Example 685] | 6.00 to 7.00 |
| CCc1c(Oc2ccc(-n3nc4n(c3=O)[C@H](c3ccccc3)CC4)cc2F)nsc1C(N)=O (single isomer, unassigned) [Example 686] | > 7.00 |
| NC(=O)c1nnc(Oc2ccc(-n3nc4n(c3=O)[C@H](c3ccccc3)CC4)cc2F)s1 (single isomer, unassigned) [Example 687] | > 7.00 |
| NC(=O)c1coc(Oc2ccc(-n3nc4n(c3=O)[C@H](c3ccccc3)CC4)cc2F)n1 (single isomer, unassigned) [Example 688] | 6.00 to 7.00 |
| Cc1cc(C(N)=O)sc1Oc1ccc(-n2nc3n(c2=O)[C@H](c2ccccc2)CC3)cc1F (single isomer, unassigned) [Example 689] | > 7.00 |
| Cc1c(Oc2ccc(-n3nc4n(c3=O)[C@H](c3ccccc3)CC4)cc2F)noc1C(N)=O (single isomer, unassigned) [Example 690] | > 7.00 |
| NC(=O)c1nnc(Oc2ccc(-n3nc4n(c3=O)[C@H](c3ccccc3)CC4)cc2F)o1 (single isomer, unassigned) [Example 691] | 5.00 to 6.00 |
| Cn1nc(C(N)=O)nc1Oc1ccc(-n2nc3n(c2=O)[C@H](c2ccccc2)CC3)cc1F (single isomer, unassigned) [Example 692] | > 7.00 |
| Cc1nc(C(N)=O)n(C)c1Oc1ccc(-n2nc3n(c2=O)[C@H](c2ccccc2)CC3)cc1F (single isomer, unassigned) [Example 693] | > 7.00 |
| Cc1cc(C(N)=O)oc1Oc1ccc(-n2nc3n(c2=O)[C@H](c2ccccc2)CC3)cc1F (single isomer, unassigned) [Example 694] | > 7.00 |
| Cc1c(C(N)=O)noc1Oc1ccc(-n2nc3n(c2=O)[C@H](c2ccccc2)CC3)cc1F (single isomer, unassigned) [Example 695] | > 7.00 |
| Cc1oc(C(N)=O)nc1Oc1ccc(-n2nc3n(c2=O)[C@H](c2ccccc2)CC3)cc1F (single isomer, unassigned) [Example 696] | > 7.00 |
